Results from patent US20260137707A1, “METHODS OF MODULATING ATXN2 EXPRESSION” (University of Utah Research Foundation, priority 2022, published 2026).
Read-outs that look alike come from different tables or passages of the source.

Key:
[1] = test system: ATXN2-luc; experiment: Secondary assays, Bright-Glo luciferase in H2 and S2 cells; assay type: cell-based; conditions: for min ATXN2-luc: minimum ATXN2-luc luciferase over 12 doses, H2 and S2 cells
Experimental: (§1) Compounds were plated at 2× concentrations in 25 μl in 384 well plates with each compound dose plated in triplicate. An equal volume of S2, H2, or SC cells (24,000 cells/well) suspended in phenol-red free Dulbecco's Modified Eagle Medium (DMEM) with 10% fetal bovine serum and 1× penicillin/streptomycin were added. Cells were grown 24 hrs then assayed first by using the CellTiter-Fluor reagent (20 μl) followed by the addition of Bright-Glo ([…]) luciferase assay, using a multimode plate reader (Beckman DT880). Values were reported as the mean±standard deviation (SD) with n=3. IC50s were determined by the Hill coefficient method using an online tool (https://www.aatbio.com/tools/ic50-calculator).
(§2) These 46 compounds were retested at 12 doses and a zero-compound dose, in multiplexed assays in 96-well plates using CellTiter-Fluor to determine cell viability, then Bright-Glo to determine luciferase expression. The values for H2 and S2 were used as replicates to calculate IC50s and to assess cell viability.
(§3) For CMV-luc and viability charts, the fitted lines are second-order polynomials. Means and SD are shown.

[2] = test system: CMV-luc; experiment: Secondary assays, Bright-Glo luciferase in SC cells; assay type: cell-based; conditions: minimum CMV-luc luciferase in SC cells over 12 doses
Experimental: as §1, §3

[3] = test system: H2, S2, and SC cells; experiment: Secondary assays, CellTiter-Fluor viability
Experimental: as §1, §2, §3

[4] = test system: ATXN2-luc; experiment: qHTS (NCGC LOPAC pilot and primary), Steady-Glo luciferase, 1536-well; assay type: cell-based
Experimental: 4 μl of S2 cell suspension in phenol-red free DMEM was dispensed into wells of 1536-well assay plates. […] Next, SteadyGlo luciferase substrate detection reagent (3 μl) was added to each well and incubated for an additional 5 minutes at room temperature. Luminescence was then measured on the ViewLux imager equipped with clear filters using a 2 sec exposure. All screening operations were performed on a fully integrated robotic system (Kalypsys) containing one RX-130 and two RX-90 anthropomorphic robotic arms (Staubli). Vehicle-only plates, with DMSO being pin-transferred to columns 5-48, were inserted uniformly at the beginning and the end of each library in order to monitor and record any shifts in assay performance.
Screening to optimize the assay in 1536-well format was conducted at the NCGC laboratory using S2 cells. […] Cytotoxicity was determined using a multiplexed viability assay (CellTiter-Fluor). […] Cells were plated 1000 cells/well in 1536 well plates. Plates were assayed for ATXN2-luc expression (Steady-Glo) and compound effect on cell abundance (CellTiter-Fluor), with increases shown for each well indicated by red, and decreases indicated by blue.
A fluorescence-based viability assay using GF-AFC substrate was used to determine compound effect on cell viability and Steady-Glo was used to measure luciferase in a multiplexed assay.

[5] = test system: ATXN2-luc; conditions: H2 cells
[6] = test system: ATXN2-luc; conditions: average ATXN2-luc response of H2 and S1 cells
[7] = test system: ATXN2-luc; experiment: Orthogonal ATXN2-luc luciferase assay in H2 cells; assay type: cell-based
Description: (§4) Probabilities are from one-way ANOVA and post-hoc Bonferroni corrected t-tests: ns, not significant; **, P<0.01.

[8] = test system: H2 cells; experiment: Orthogonal paired MTT viability in H2 cells; assay type: cell-based; conditions: at 1 nM
Experimental: ATXN2 expression associates with the expression of the proscillaridin A target ATP1A2. […] The cells were also evaluated for viability by MTT assay. Values shown are means and standard deviations. HEK-293 cells were then treated with increasing doses of proscillaridin A for either 24 and 48 hours, showing >50% reduction of endogenous ATXN2 when cells were treated with 1 nM proscillaridin A at 48 hours.

[9] = test system: endogenous ATXN2; experiment: Endogenous ATXN2 expression in HEK-293 cells by qPCR; assay type: cell-based
Description: Total RNA was extracted from cells cultured in 24-well plates using the RNeasy Mini-Kit (Qiagen Inc.) according to the manufacturer's protocol. DNAse I treated RNAs were used to synthesize cDNA using ProtoScript cDNA synthesis kit (New England Biolabs Inc.). Sets of primers used for qPCR included ATXN2 primers ATXN2-F (5′-[sequence]-3′) & ATXN2-R (5′-[sequence]-3′), ATP1A2 primers ATP1A2-F (5′-[sequence]-3′) & ATP1A2-R (5′-[sequence]-3′), GAPDH primers GAPDH-F133 (5′-[sequence]-3′) & GAPDH-R333 (5′-[sequence]-3′), and mouse Actb primers Actb-F (5′-[sequence]-3′) & Actb-R (5′-[sequence]-3′). qPCR was performed in the Bio-Rad CFX96 instrument (Bio-Rad Inc.) with the Power SYBR Green PCR master mix (Applied Biosystems Inc.). PCR amplification was carried out for 45 cycles. Cycling parameters were denaturation (95° C. for 10 s), annealing (60° C. for 10 s), extension (72° C. for 40 s).
as §4

[10] = ATXN2-luc, Bright-Glo, H2 and S2 values used as replicates, 12 doses, 96-well plates, read-out: Mean IC50
[11] = minimum cell viability, CellTiter-Fluor, over 12 doses
[12] = S2 cells, LOPAC1280 library, 24 hrs
[13] = Table 1, 24 hrs, single 10 μM dose, Z-score of luciferase

## O=c1[nH]c2ccc(Cl)cc2c(N[C@@H]2CN3CCC2CC3)c1-c1nc2ccccc2[nH]1 [CHIR-124]
[1]; [10]
  IC50: 219 nM
[1]
  min ATXN2-luc: 17.98%
[2]
  min SC luc: 69.4%
[3]; [11]
  min viability: 75.06%

## Cn1cc(-c2cnn3c(N)c(Br)c([C@H]4CCCNC4)nc23)cn1 [Compound 891494-64-7]
[1]; [10]
  IC50: 388 nM
[1]
  min ATXN2-luc: 25.49%
[2]
  min SC luc: 91.51%
[3]
  min viability: 87.04%

## C[C@H]1O[C@@H](O[C@H]2CC[C@]3(C=O)[C@H]4CC[C@]5(C)[C@@H](C6=CC(=O)OC6)CC[C@]5(O)[C@@H]4CC[C@]3(O)C2)C[C@H](O)[C@@H]1O [Helveticoside]
[4]; [12]
  Curve Class: −1.1
[5]; [13]
  SD from Mean: −2.733 SD
[5]; Table 5S, pilot screen, 10 μM
  SD from Mean: −2.733 SD
[6]
  Luc at 1 μm: 118
  Luc at 10 μm: 41

## CCc1c(O)cc(O)c(C(=O)c2ccc(OCCN3CCOCC3)c(OC)c2)c1CC(=O)N(CCOC)CCOC [KW-2478]
[1]; [10]
  IC50: 587 nM
[1]
  min ATXN2-luc: 23.94%
[2]
  min SC luc: 105.9%
[3]; [11]
  min viability: 97.67%

## CCC(=C/[C@H](C)C/C=C/C(C)=C/[C@@H](C)C(=O)[C@@H](C)[C@H](O)[C@@H](C)C/C(C)=C/C(=O)O)/C=C/[C@@H]1OC(=O)C=C[C@@H]1C [Leptomycin B]
[1]; [10]
  IC50: 48 nM
[1]
  min ATXN2-luc: 28.33%
[2]
  min SC luc: 90.06%
[3]; [11]
  min viability: 65.42%

## Cc1cnc(NC(=O)CN2CCN(c3ccccn3)CC2)s1 [MLS000035284]
[1]; [10]
  IC50: 12900 nM
[1]
  min ATXN2-luc: 38.57%
[2]
  min SC luc: 4.094%
[3]
  min viability: 76.85%

## Clc1ccc(C[n+]2cc(-c3ccccc3)n3c2CCCCC3)c(Cl)c1.[Br-] [MLS000420216]
[1]; [10]
  IC50: 8080 nM
[1]
  min ATXN2-luc: 56.47%
[2]
  min SC luc: 72.16%
[3]
  min viability: 84.52%

## S=C(NCCCN1CCOCC1)N1CCN(c2nc(-c3ccccc3)cs2)CC1 [MLS000706289]
[1]; [10]
  IC50: 6850 nM
[1]
  min ATXN2-luc: 61.65%
[2]
  min SC luc: 79.3%
[3]
  min viability: 89.11%

## CN(c1ccccc1CNc1nc(Nc2ccc3c(c2)CC(=O)N3)ncc1C(F)(F)F)S(C)(=O)=O [PF-431396]
[1]; [10]
  IC50: 2320 nM
[1]
  min ATXN2-luc: 15.51%
[2]
  min SC luc: 98.3%
[3]
  min viability: 64.59%

## Nc1ncnc2c1c(-c1cnc3[nH]ccc3c1)nn2C1CCCC1 [PP121]
[1]; [10]
  IC50: 4160 nM
[1]
  min ATXN2-luc: 27.48%
[2]
  min SC luc: 78.1%
[3]; [11]
  min viability: 50.39%

## Cc1cccc(Nc2nc(N[C@@H]3CCCC[C@@H]3N)ncc2C(N)=O)c1 [PRT-060318]
[1]; [10]
  IC50: 25400 nM
[1]
  min ATXN2-luc: 64.25%
[2]
  min SC luc: 86.82%
[3]
  min viability: 94.62%

## C[C@@H]1O[C@@H](O[C@@H]2C=C3CC[C@@H]4[C@H](CC[C@]5(C)[C@@H](c6ccc(=O)oc6)CC[C@]45O)[C@@]3(C)CC2)[C@H](O)[C@H](O)[C@H]1O [Proscillaridin A]
[1]; H2 and S2 used as replicates, 24 hrs, read-out: IC50 (ATXN2-luc, secondary assays)
  IC50: 17 nM
[1]
  min ATXN2-luc: 7.986%
[2]
  min SC luc: 122%
[3]; [11]
  min viability: 74.18%
[7]; H2 cells treated for 48 hrs, read-out: IC50 (ATXN2-luc expression)
  IC50: 0.052 nM
[7]; H2 cells, at 1 nM
  ATXN2-luc reduction: 80%
[8]
  cellular viability (MTT method): minimal effect on cellular viability
[9]; 1 nM, 48 hours
  reduction of endogenous ATXN2: > 50%
[9]; 48 hrs
  IC50: 677 nM
[5]; [13]
  SD from Mean: −7.684 SD
[5]; Table 5S, pilot screen, 10 μM
  SD from Mean: −7.684 SD
[6]
  Luc at 1 μm: 54
  Luc at 10 μm: 22

## CNC(=O)c1cc(Oc2ccc(NC(=O)Nc3cc(C(C)(C)C)nn3-c3ccc4ncccc4c3)c(F)c2)ccn1 [Rebastinib (DCC-2036)]
[1]; [10]
  IC50: 3730 nM
[1]
  min ATXN2-luc: 27.07%
[2]
  min SC luc: 60.58%
[3]
  min viability: 56.58%

## Cc1ccc(-c2ncn(-c3ccc(Nc4nccc(-c5cccc(N6CCOCC6)c5)n4)cc3)n2)cn1 [SR-3306]
[1]; [10]
  IC50: 1300 nM
[1]
  min ATXN2-luc: 15.65%
[2]
  min SC luc: 82.9%
[3]; [11]
  min viability: 65.37%

## Naltrindole hydrochloride
[4]; [12]
  Curve Class: −2.2

## Protriptyline hydrochloride
[4]
  Curve Class: −2.2
